From US7910324B2, “Method of screening for compounds which affect the processing of EphA4 by γ-secretase” (priority 2007, dated 2011)

Tests used:
[1] = system: γ-secretase cleavage of rat EphA4 with HA tag in HEK293 cells; test: EphA4 processing in EphA4-HA transfected 293/EBNA-1 cells, Western blot with anti-HA antibody; type: cell-based; conditions: Compound E 50 nM, one day, EphA4-HA transfected 293/EBNA-1 (HEK293) cells
Method: Whether or not EphA4 is a substrate for γ-secretase was evaluated using HEK293 cells expressing EphA4 with an HA tag added to its C-terminus, in the presence of a γ-secretase inhibitor. As the γ-secretase inhibitor, (2S)-2-{[(3,5-difluorophenyl)acetyl]amino}-N-[(3S)-1-methyl-2-oxo-5-phenyl-2,3-dihydro-1H-1,4-benzodiazepin-3-yl]propanamide (hereinafter, sometimes referred to as “Compound E”) (Alexis Biochemicals) was used.
293/EBNA-1 cell strain (Invitrogen) was cultured in 10% FBS (Hyclone)/DMEM (Invitrogen) under 5% CO2 at 37° C., followed by transfection thereinto of a gene encoding rat EphA4 with an HA tag added to its C-terminus with Lipofectamine 2000 (Invitrogen). After one day culture under the same conditions, Compound E (γ-secretase inhibitor, Alexis Biochemicals) was added to the medium (final concentration: 50 nM). Cells were cultured for another day under the same conditions. Then, the transfected HEK293 cells were collected with PBS (Sigma) and sonicated with a sonicator (Taitec VP-5S) to disrupt cells. Then, the quantity of protein was determined with Protein Assay Kit (BioRad). Samples (2 μg each) were taken from proteins obtained from Compound E-added cells and Compound E-not added cells, respectively, and subjected to SDS-PAGE, followed by Western blotting with an anti-HA antibody (Roche) (final concentration: 0.2 μg/ml). […]

[2] = system: γ-secretase cleavage of EphA4 in rat hippocampal neurons; test: EphA4 processing in primary culture of rat hippocampal neurons, Western blot with anti-EphA4 antibody; type: cell-based; conditions: Compound E 50 nM, one week
Method: Whether or not EphA4 is a substrate for γ-secretase was evaluated using a primary culture of rat hippocampal neurons in the presence of a γ-secretase inhibitor. As the γ-secretase inhibitor, (2S)-2-{[(3,5-difluorophenyl)acetyl]amino}-N-[(3S)-1-methyl-2-oxo-5-phenyl-2,3-dihydro-1H-1,4-benzodiazepin-3-yl]propanamide (Compound E) (Alexis Biochemicals) was used.
The hippocampus was isolated from embryonic day 18 SD rats (Charles River) and subjected to culture. Specifically, embryos were removed aseptically from pregnant rats under etherization. The brain was removed from each embryo and dipped in 20% FBS (Hyclone)/HBSS (Sigma). The hippocampus was collected from the thus obtained brain under a stereomicroscope. The collected hippocampus was treated in an enzyme solution containing 0.25% trypsin (Invitrogen) and 0.5 mg/ml DNase (Sigma) at 37° C. for 10 minutes to disperse cells. This enzyme reaction was terminated by adding 20% FBS (Hyclone)/HBSS (Sigma). Then, 2 ml of HBSS (Sigma) was added to the resultant cells. The HBSS-added cell mass was re-dispersed by gentle pipetting. The resultant neuron suspension was diluted with a medium and plated in 10 cm dishes at an initial cell density of 1.5×10^6 cells/dish. […] Then, cells were collected with PBS and subjected to quantitative determination of protein. […]

How did the “accumulation of EphA4 CTF band around 50 kDa (EphA4 undegraded product)” value [1] turn out when `C[C@H](NC(=O)Cc1cc(F)cc(F)c1)C(=O)N[C@H]1N=C(c2ccccc2)c2ccccc2N(C)C1=O` [Compound E, (2S)-2-{[(3,5-difluorophenyl)acetyl]amino}-N-[(3S)-1-methyl-2-oxo-5-phenyl-2,3-dihydro-1H-1,4-benzodiazepin-3-yl]propanamide] was run?
Its value is “a band around 50 kDa (CTF) was accumulated specifically”.

What about the “accumulation of EphA4 CTF band around 50 kDa” value [2] of the same compound?
The value was “a band around 50 kDa (CTF) was accumulated specifically”.
